Data from patent US10934309B2, “Tricyclic quinone derivative” (Boston Biomedical, Inc., priority 2014, dated 2021).

What was measured:
Type in all cases: cell-based, human
HCT-116 cells [1] = assay: Inhibition assay of cancer cell sphere-forming ability (Test Example 2), HCT-116; conditions: HCT-116 cells, Ultra-Low Attachment plate, serum-free DMEM/F12 with B27, EGF, bFGF, insulin, 4 days, Cell Titer-Glo, read-out: IC50 (μM) HCT, concentration for 50% inhibition of cell proliferation (Sphere IC50 value)
Protocol: (§1) HCT-116 cells (derived from human colon adenocarcinoma), HT-29 cells (derived from human colon cancer), FaDu cells (derived from human hypopharynx cancer) were obtained from American Type Culture Collection (ATCC). […] HCT-116 cells, HT-29 cells, and FaDu cells were seeded onto 384 Well Black Clear Bottom Ultra-Low Attachment Microplate (Corning Cat. […] A test substance was added so that the final concentration of DMSO is 0.1%, and then cultured for 4 days. […] A test shown in Test example 2 was carried out for compounds obtained in the Examples.

HCT-116 cells [2] = assay: Proliferation inhibition assay of cancer cells (Test Example 1), HCT-116; conditions: HCT-116 cells, cultured for 4 days, Cell Titer-Glo, read-out: IC50 (μM) HCT, concentration for 50% inhibition of cell proliferation (Bulk IC50 value)
Protocol: (§2) HCT-116 cells (derived from human colon adenocarcinoma), HT-29 cells (derived from human colon cancer), and FaDu cells (derived from human hypopharynx cancer) were obtained from American Type Culture Collection (ATCC). […] After cells were seeded at 300-600 cells/well onto black μClear-plate 384 well (Greiner bio-one Cat. No. 781091), a test substance was added such that the final concentration of DMSO is 0.1%, and cultured for 4 days. […] A test shown in Test example 1 was carried out for compounds obtained in the Examples.

HT-29 cells [3] = assay: Proliferation inhibition assay of cancer cells (Test Example 1), HT-29; conditions: HT-29 cells, cultured for 4 days, Cell Titer-Glo, read-out: IC50 (μM) HT, concentration for 50% inhibition of cell proliferation (Bulk IC50 value)
Protocol: as §2

HT-29 cells [4] = assay: Inhibition assay of cancer cell sphere-forming ability (Test Example 2), HT-29; conditions: HT-29 cells, Ultra-Low Attachment plate, serum-free DMEM/F12 with B27, EGF, bFGF, insulin, 4 days, Cell Titer-Glo, read-out: IC50 (μM) HT, concentration for 50% inhibition of cell proliferation (Sphere IC50 value)
Protocol: as §1

FaDu cells [5] = assay: Inhibition assay of cancer cell sphere-forming ability (Test Example 2), FaDu; conditions: FaDu cells, Ultra-Low Attachment plate, serum-free DMEM/F12 with B27, EGF, bFGF, insulin, 4 days, Cell Titer-Glo, read-out: IC50 (μM) FaDu, concentration for 50% inhibition of cell proliferation (Sphere IC50 value)
Protocol: as §1

FaDu cells [6] = assay: Proliferation inhibition assay of cancer cells (Test Example 1), FaDu; conditions: FaDu cells, cultured for 4 days, Cell Titer-Glo, read-out: IC50 (μM) FaDu, concentration for 50% inhibition of cell proliferation (Bulk IC50 value)
Protocol: as §2

Row | SMILES | IC50 (HCT-116 cells [1]; Homo sapiens, HCT-116, 96 h) | IC50 (HCT-116 cells [2]; Homo sapiens, HCT-116, 96 h) | IC50 (HT-29 cells [3]; Homo sapiens, HT-29, 96 h) | IC50 (HT-29 cells [4]; Homo sapiens, HT-29, 96 h) | IC50 (FaDu cells [5]; Homo sapiens, FaDu, 96 h) | IC50 (FaDu cells [6]; Homo sapiens, FaDu, 96 h) | IC50 (HCT-116 cells [1]) | IC50 (HCT-116 cells [2]) | IC50 (HT-29 cells [3]) | IC50 (HT-29 cells [4]) | IC50 (FaDu cells [5]) | IC50 (FaDu cells [6])
1 | CCN(Cc1cc2c(o1)C(=O)c1cccnc1C2=O)C(=O)CC(C)C [Example 9, N-[(4,9-dioxo-4,9-dihydrofuro[2,3-g]quinolin-2-yl)methyl]-N-ethyl-3-methylbutanamide] | 0.28 µM | 0.53 µM | > 10 µM | 0.61 µM | 0.1 µM | 0.6 µM |  |  |  |  |  | 
2 | O=C1c2cnccc2C(=O)c2sc(COCc3ccccc3)cc21 [Example 18, 2-[(benzyloxy)methyl]thieno[2,3-g]isoquinoline-4,9-dione] | 5.71 µM | 1 µM | > 10 µM | > 10 µM | 0.63 µM | 0.57 µM |  |  |  |  |  | 
3 | CC(O)c1cc2c(o1)C(=O)c1ccncc1C2=O (stereo not drawn) [Example 45, 2-(1-hydroxyethyl)furo[2,3-g]isoquinoline-4,9-dione] | 0.06 µM | 0.06 µM | 0.52 µM | 0.08 µM | 0.03 µM | 0.03 µM |  |  |  |  |  | 
4 | C#Cc1cc2c(s1)C(=O)c1ccncc1C2=O [Example 61, 2-ethynylthieno[2,3-g]isoquinoline-4,9-dione] | 0.28 µM | 0.19 µM | 0.54 µM | 0.24 µM | 0.05 µM | 0.05 µM |  |  |  |  |  | 
5 | O=C1c2cc(C(=O)N3CCOCC3)sc2C(=O)c2nccnc21 [Example 57, 7-(morpholin-4-ylcarbonyl)thieno[2,3-g]quinoxaline-5,9-dione] | 4.97 µM | 5.71 µM | > 10 µM | > 10 µM | 5.65 µM | 8.21 µM |  |  |  |  |  | 
6 | CC(O)c1cc2c(o1)C(=O)c1ncccc1C2=O (stereo not drawn) [Example 51, 2-(1-hydroxyethyl)furo[3,2-g]quinoline-4,9-dione] | 0.09 µM | 0.39 µM | 0.84 µM | 0.43 µM | 0.08 µM | 0.49 µM |  |  |  |  |  | 
7 | CC(c1cc2c(s1)C(=O)c1ccncc1C2=O)N1CCOCC1 (stereo not drawn) [Example 23, 2-[1-(morpholin-4-yl)ethyl]thieno[2,3-g]isoquinoline-4,9-dione] | 0.31 µM | 0.1 µM | 0.58 µM | 0.48 µM | 0.04 µM | 0.03 µM |  |  |  |  |  | 
8 | CC(C)(C)OC(=O)NCc1cc2c(s1)C(=O)c1ncccc1C2=O [Example 41, tert-butyl (4,9-dioxo-4,9-dihydrothieno[3,2-g]quinolin-2-yl)methylcarbamate] | 0.83 µM | 0.7 µM | 4.52 µM | 3.82 µM | 0.46 µM | 0.78 µM |  |  |  |  |  | 
9 | O=C(NCC(F)F)c1cc2c(s1)C(=O)c1ncccc1C2=O [Example 40, N-(2,2-difluoroethyl)-4,9-dioxo-4,9-dihydroxythieno[3,2-g]quinoline-2-carboxyamide] |  |  |  |  |  |  | 0.08 µM | 0.07 µM | 0.55 µM | 0.51 µM | 0.05 µM | 0.05 µM
10 | CCN(Cc1cc2c(o1)C(=O)c1cccnc1C2=O)S(=O)(=O)CC(C)C [Example 10, N-[(4,9-dioxo-4,9-dihydrofuro[2,3-g]quinolin-2-yl)methyl]-N-ethyl-2-methylpropane-1-sulfonamide] | 0.38 µM | 0.5 µM | 6.14 µM | 0.53 µM | 0.09 µM | 0.5 µM |  |  |  |  |  | 
11 | COc1c2ccncc2c(OC)c2sc(C(C)O)cc12 (stereo not drawn) [Example 34, 1-(4,9-dimethoxythieno[3,2-g]isoquinolin-2-yl)ethanol] | 0.24 µM | 0.07 µM | 0.64 µM | 0.5 µM | 0.04 µM | 0.04 µM |  |  |  |  |  | 
12 | CC(O)c1cc2c(s1)C(=O)c1cccnc1C2=O (stereo not drawn) [Example 2, 2-(1-hydroxyethyl)thieno[2,3-g]quinoline-4,9-dione] | 0.23 µM | 0.08 µM | 0.86 µM | 0.55 µM | 0.12 µM | 0.1 µM |  |  |  |  |  | 
13 | O=C1c2cc(CN3CCOCC3)sc2C(=O)c2cccnc21 [Example 4, 2-(morpholin-4-ylmethyl)thieno[2,3-g]quinoline-4,9-dione] | 0.55 µM | 0.57 µM | 0.68 µM | 0.63 µM | 0.34 µM | 0.46 µM |  |  |  |  |  | 
14 | C[C@@H]1CN(C(=O)c2cc3c(s2)C(=O)c2nccnc2C3=O)C[C@H](C)O1 [Example 58, 7-{[(2R,6S)-2,6-dimethylmorpholin-4-yl]carbonyl}thieno[2,3-g]quinoxaline-5,9-dione] | 0.56 µM | 0.64 µM | 7.06 µM | 5.97 µM | 0.76 µM | 3.71 µM |  |  |  |  |  | 
15 | CC(=O)c1cc2c(o1)C(=O)c1ccncc1C2=O [Example 44, 2-acetylfuro[2,3-g]isoquinoline-4,9-dione] | 0.06 µM | 0.06 µM | 0.51 µM | 0.08 µM | 0.04 µM | 0.03 µM |  |  |  |  |  | 
16 | CCN(CCOC)Cc1cc2c(s1)C(=O)c1cccnc1C2=O [Example 6, 2-{[ethyl(2-methoxyethyl)amino]methyl}thieno[2,3-g]quinoline-4,9-dione] | 0.2 µM | 0.39 µM | 0.93 µM | 0.63 µM | 0.33 µM | 0.41 µM |  |  |  |  |  | 
17 | CN(C)C(=O)c1cc2c(s1)C(=O)c1cccnc1C2=O [Example 3, N,N-dimethyl-4,9-dioxo-4,9-dihydrothieno[2,3-g]quinoline-2-carboxamide] | 0.05 µM | 0.06 µM | 0.56 µM | 0.43 µM | 0.05 µM | 0.07 µM |  |  |  |  |  | 
18 | CCN(Cc1ccncc1)Cc1cc2c(s1)C(=O)c1cccnc1C2=O [Example 7, 2-{[ethyl(pyridin-4-ylmethyl)amino]methyl}thieno[2,3-g]quinoline-4,9-dione] | 0.51 µM | 0.4 µM |  |  | 0.36 µM | 0.4 µM |  |  | 2.64 µM | 3.04 µM |  | 
